{
  "source": "patent EP1075471B1",
  "about": "“INDOLYL DERIVATIVES AS SEROTONERGIC AGENTS” (Wyeth, priority 1998, dated 1999)",
  "target": "T1, serotonin transporter (Rattus norvegicus, UniProt P31652)",
  "T1 construct": "frontal cortical membranes prepared from male S.D. rats; from tissue; host or cells: rat frontal cortex membranes (male Sprague-Dawley rats)",
  "T1 sequence (P31652 whole entry)": "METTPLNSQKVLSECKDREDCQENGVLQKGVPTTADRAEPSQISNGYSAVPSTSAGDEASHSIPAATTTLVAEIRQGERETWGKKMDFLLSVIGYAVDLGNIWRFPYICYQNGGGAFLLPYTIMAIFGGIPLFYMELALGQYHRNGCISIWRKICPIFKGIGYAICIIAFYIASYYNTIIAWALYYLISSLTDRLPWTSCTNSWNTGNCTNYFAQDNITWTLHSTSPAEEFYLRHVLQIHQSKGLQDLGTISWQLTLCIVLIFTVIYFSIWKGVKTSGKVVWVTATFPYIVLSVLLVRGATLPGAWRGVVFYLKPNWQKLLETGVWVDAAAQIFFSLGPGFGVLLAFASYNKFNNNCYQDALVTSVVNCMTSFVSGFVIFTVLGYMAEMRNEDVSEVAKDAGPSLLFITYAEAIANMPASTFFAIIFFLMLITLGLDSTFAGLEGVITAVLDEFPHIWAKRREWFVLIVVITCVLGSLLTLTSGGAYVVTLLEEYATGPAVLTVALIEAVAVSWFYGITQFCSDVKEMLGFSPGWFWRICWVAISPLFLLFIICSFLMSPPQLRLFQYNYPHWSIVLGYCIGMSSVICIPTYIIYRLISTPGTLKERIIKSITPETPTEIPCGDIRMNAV",
  "assay": "3H-Paroxetine binding to assess affinity for the serotonin transporter",
  "description": "The affinity of drugs for the serotonin transporter was determined by assessing the ability of agents to displace specifically bound 3H-paroxetine binding from rat cortical membranes. […] Nonspecific binding was determined using fluoxetine.\n^3H-Paroxetine Binding to Assess Affinity of Drugs for the Serotonin Transporter:\nBriefly, frontal cortical membranes prepared from male S.D. rats were incubated with ^3H-paroxetine (0.1 nM) for 60 min at 25°C. All tubes also contained either vehicle, test compound (one to eight concentrations), or a saturating concentration of fluoxetine (10 µM) to define […]. All reactions are terminated by the addition of ice cold Tris buffer followed by rapid filtration using a Tom Tech filtration device to separate bound from free ^3H-paroxetine.",
  "note": "pKi: −log10 of the molar value. Read-outs that look alike come from different tables or passages of the source.",
  "data": [
    {"smiles": "OC(CN1CC=C(c2c[nH]c3ccccc23)CC1)Cn1ccc2cc(F)ccc21", "note": "(stereo not shown) [Example 8, 1-(5-Fluoro-indol-1-yl)-3-[4-(1H-indol-3-yl)-3,6-dihydro-2H-pyridin-1-yl]-propan-2-ol]", "values": [
      {"measurement": "pKi", "value": 8.85}
    ]},
    {"smiles": "OC(CN1CC=C(c2c[nH]c3ccccc23)CC1)Cn1ccc2ccccc21", "note": "(stereo not shown) [Example 12, 1-Indol-1-yl-3-[4-(1H-indol-3-yl)-3,6-dihydro-2H-pyridin-1-yl]-propan-2-ol]", "values": [
      {"measurement": "pKi", "setting": "read-out: Inhibition of [3H]-Paroxetine binding Ki, compounds of formula (1), rat frontal cortical membranes, 3H-paroxetine 0.1 nM, 60 min at 25°C, nonspecific binding with fluoxetine 10 µM", "value": 8.77}
    ]},
    {"smiles": "COc1cccc2c1ccn2CC(O)CN1CC=C(c2c[nH]c3ccccc23)CC1", "note": "(stereo not shown) [Example 11, 1-[4-(1H-Indol-3-yl)-3,6-dihydro-2H-pyridin-1-yl]-3-(4-methoxy-indol-1-yl)-propan-2-ol]", "values": [
      {"measurement": "pKi", "value": 10.40}
    ]},
    {"smiles": "COc1cccc2c1ccn2C[C@@H](O)CN1CC=C(c2c[nH]c3ccccc23)CC1", "note": "[Example 14, (2S)-1-[4-(1H-Indol-3-yl)-3,6-dihydro-2H-pyridin-1-yl]-3-(4-methoxy-indol-1-yl)-propan-2-ol]", "values": [
      {"measurement": "pKi", "value": 10.52}
    ]},
    {"smiles": "Cc1nc2ccccc2n1CC(O)CN1CC=C(c2c[nH]c3ccccc23)CC1", "note": "(stereo not shown) [Example 13, 1-[4-(1H-Indol-3-yl)-3,6-dihydro-2H-pyridin-1-yl]-3-(2-methyl-benzoimidazol-1-yl)-propan-2-ol]", "values": [
      {"measurement": "pKi", "value": 9.40}
    ]},
    {"smiles": "O[C@@H](CN1CC=C(c2c[nH]c3ccccc23)CC1)Cn1ccc2c(F)cccc21", "note": "[Example 15, (2S)-1-(4-Fluoro-indol-1-yl)-3-[4-(1H-indol-3-yl)-3,6-dihydro-2H-pyridin-1-yl]-propan-2-ol]", "values": [
      {"measurement": "pKi", "value": 9.52}
    ]},
    {"smiles": "OC(CN1CC=C(c2c[nH]c3ccccc23)CC1)Cn1ccc2c(F)cccc21", "note": "(stereo not shown) [Example 10, 1-(4-Fluoro-indol-1-yl)-3-[4-(1H-indol-3-yl)-3,6-dihydro-2H-pyridin-1-yl]-propan-2-ol]", "values": [
      {"measurement": "pKi", "value": 11.00}
    ]}
  ]
}
